Measured values taken from article PMC8288134, “Synthesis, potential antitumor activity, cell cycle analysis, and multitarget mechanisms of novel hydrazones incorporating a 4-methylsulfonylbenzene scaffold: a molecular docking study” (Journal of Enzyme Inhibition and Medicinal Chemistry, 2021).
Like-named read-outs stand apart in the source and are kept apart here.

Legend:
PRMI-8226 = assay: NCI antitumor screen (SRB); assay type: cell-based; conditions: Homo sapiens, one dose 10 µM, read-out: Growth inhibition percentage (GI%)
U251 = assay: NCI antitumor screen (SRB); assay type: cell-based; conditions: Homo sapiens, U-251, one dose 10 µM, read-out: Growth inhibition percentage (GI%)
SN12C = assay: NCI antitumor screen (SRB); assay type: cell-based; conditions: Homo sapiens, one dose 10 µM, read-out: Growth inhibition percentage (GI%)
ACHN = assay: NCI antitumor screen (SRB); assay type: cell-based; conditions: Homo sapiens, one dose 10 µM, read-out: Growth inhibition percentage (GI%)
HCT-116 = assay: NCI antitumor screen (SRB); assay type: cell-based; conditions: Homo sapiens, read-out: Growth inhibition percentage (GI%)
HS 578 T = assay: NCI antitumor screen (SRB); assay type: cell-based; conditions: Homo sapiens, one dose 10 µM, read-out: Growth inhibition percentage (GI%)
OVCAR-5 = assay: NCI antitumor screen (SRB); assay type: cell-based; conditions: Homo sapiens, one dose 10 µM, read-out: Growth inhibition percentage (GI%)
DU-145 = assay: NCI antitumor screen (SRB); assay type: cell-based; conditions: Homo sapiens, one dose 10 µM, read-out: Growth inhibition percentage (GI%)
A498 = assay: NCI antitumor screen (SRB); assay type: cell-based; conditions: Homo sapiens, one dose 10 µM, read-out: Growth inhibition percentage (GI%)
SNB-75 = assay: NCI antitumor screen (SRB); assay type: cell-based; conditions: Homo sapiens, one dose 10 µM, read-out: Growth inhibition percentage (GI%)
RXF 393 = assay: NCI antitumor screen (SRB); assay type: cell-based; conditions: Homo sapiens, one dose 10 µM, read-out: Growth inhibition percentage (GI%)
A549/ATCC = assay: NCI antitumor screen (SRB); assay type: cell-based; conditions: Homo sapiens, one dose 10 µM, read-out: Growth inhibition percentage (GI%)
HL-60(TB) = assay: cells; assay type: cell-based, human; conditions: Homo sapiens, HL-60, HL-60(TB); one dose 10 µM; read-out: Growth inhibition percentage (GI%)
[1] = test system: prostate cancer tumour cell lines; conditions: cited from earlier work
[2] = test system: leukaemia tumour cell lines; conditions: cited from earlier work
HL60 cells [3] = assay: Cell cycle analysis (PI, flow cytometry); assay type: cell-based, human; conditions: HL60, 10.0 µM, 24 h
Method: Antitumor agents can induce apoptosis by activating signalling pathways, leading to G2/M phase arrest[73]^,[74]. Flow cytometry is used to measure cell growth in different cell cycle phases (pre-G1, G1, S, and G2/M)[73]^,[74]. […]. We used the solvent DMSO as a negative control. Briefly, we incubated HL60 cells with 10 µM compounds 6, 9, 16, and 20 for 24 h. Compounds 6, 9, 16, and 20 interfered with the normal cell cycle of HL60 cells. […] […].
Cell cycle analysis was carried out similar to our previous report using the Leukaemia HL-60 cell line stained with the DNA fluorochrome PI and analysed by FACSCalibur flow cytometer[40]^,[74].
Using a method similar to that of our previous report, cell cycle analysis was carried out using Leukemia HL-60 cell line, stained with the DNA fluorochrome PI, and analyzed by FACSCalibur flow cytometer. Leukemia HL-60 cell was seeded at a density of 2 × 10^5 cells/well and incubated for 24 h in six-well plates. Fetal bovine serum (10%) was added, and the cells were incubated at 37°C in an atmosphere of 5% CO2. The medium was replaced with 1% (v/v) dimethyl sulfoxide (DMSO), containing 10.0 μM of compound 9. […]
Afterward, […]
the samples were analyzed using a FACSCalibur flow cytometer. […]
(AA) to PGH2. […]

SK-MEL-28 = assay: NCI antitumor screen (SRB); assay type: cell-based, human; conditions: Homo sapiens, one dose 10 µM, read-out: Growth inhibition percentage (GI%)
HL60 cells [4] = assay: Annexin V-FITC/PI apoptosis assay; assay type: cell-based, human; conditions: HL60, 10 µM, 24 h
Method: Apoptosis induction is the most important mechanism by which major chemotherapeutics kill cancer cells. Apoptosis causes cellular changes whereby the translocation of phosphatidylserine (PS) occurs through the plasma membrane from the inside to the outside. Annexin-V can bind to PS, which can be used as a sensitive probe for PS on the outer side of the plasma membrane. […] The AV/PI staining of HL60 cells was performed at a mixed molar concentration of 10 µM with compounds 6, 9, 16, and 20 for 24 h. Figure 4 and Table 5 show the results of treating HL60 cells with compounds 6, 9, 16, and 20 for 24 h.
According to our previous report, apoptosis induction was performed using the Leukaemia HL-60 cell line and well-established Annexin 5-FITC/PI detection kit. The cell line samples were analysed using FACSCalibur flow cytometer[40]^,[72]. […]
[(Ti-Tz)/Tz)] x 100 for concentration of which Ti ≤ Tz.
The induction of apoptosis was performed according to our previous report using Leukemia HL-
60 cell line and well-established Annexin 5-FITC/PI detection kit. The cell line samples were
analyzed using a FACSCalibur flow cytometer. […]

[5] = read-out: GI50 (subpanel average), reference drugs, ref https://dtp.cancer.gov/dtpstandard/dwindex/index.jsp
[6] = read-out: LC50 (subpanel average), reference drugs, ref https://dtp.cancer.gov/dtpstandard/dwindex/index.jsp
[7] = reference drugs, ref https://dtp.cancer.gov/dtpstandard/dwindex/index.jsp

O=c1[nH]cc(F)c(=O)[nH]1 [Compound 5-Fu, 5-fluorouracil, reference compound]
inhibition at 10 µM (PRMI-8226): 58.6% | inhibition at 10 µM (U251): 49.7% | inhibition at 10 µM (SN12C): 46% | inhibition at 10 µM (ACHN): 60.7% | inhibition at 10 µM (HCT-116): 82.2% | inhibition at 10 µM (HS 578 T): > 100% | inhibition at 10 µM (OVCAR-5): 55.7% | inhibition at 10 µM (DU-145): 64.5% | inhibition at 10 µM (A498): > 100% | inhibition at 10 µM (SNB-75): 34.1% | inhibition at 10 µM (RXF 393): 65.7% | inhibition at 10 µM (A549/ATCC): 65.8% | inhibition at 10 µM (HL-60(TB)): 52.1% | GI50 [1, 5]: 1460 nM | CC50 [1, 6]: > 100000 nM | TGI (subpanel average) [1, 7]: c (Compounds showed values ≥ 100 µM) | GI50 [2, 5]: 2820 nM | CC50 [2, 6]: > 100000 nM | TGI (subpanel average) [2, 7]: 68370 nM

CS(=O)(=O)c1ccc(C(=O)NN=Cc2cccc3ccccc23)cc1 [Compound 6, 4-(Methylsulfonyl)-N'-(naphthalen-1-ylmethylene)benzohydrazide]
inhibition at 10 µM (PRMI-8226): 12.3% | inhibition at 10 µM (U251): 23.7% | inhibition at 10 µM (SN12C): 12.6% | inhibition at 10 µM (ACHN): < 10% | inhibition at 10 µM (HCT-116): 38.2% | inhibition at 10 µM (HS 578 T): 14.9% | inhibition at 10 µM (OVCAR-5): < 10% | %G0-G1 (HL60 cells [3]): 48.31% | %G2-M (HL60 cells [3]): 23.27% | %Pre-G1 (HL60 cells [3]): 12.57% | %S (HL60 cells [3]): 28.42% | inhibition at 10 µM (DU-145): 11.2% | inhibition at 10 µM (A498): 30.9% | inhibition at 10 µM (SK-MEL-28; SK-MEL-28): 10.6% | inhibition at 10 µM (SNB-75): 10.3% | inhibition at 10 µM (RXF 393): < 10% | inhibition at 10 µM (A549/ATCC): 58.7% | inhibition at 10 µM (HL-60(TB)): 62.5% | Apoptosis, early (HL60 cells [4]): 3.52% | Apoptosis, late (HL60 cells [4]): 7.64% | Apoptosis, total (annexin V-FITC positive cells) (HL60 cells [4]): 12.57% | Necrosis (HL60 cells [4]): 1.41%

Cc1ccc(C=NNC(=O)c2ccc(S(C)(=O)=O)cc2)cc1 [Compound 9, N'-(4-Methylbenzylidene)-4-(methylsulfonyl)benzohydrazide]
inhibition at 10 µM (PRMI-8226): < 10% | inhibition at 10 µM (U251): 13.7% | inhibition at 10 µM (SN12C): < 10% | inhibition at 10 µM (ACHN): < 10% | inhibition at 10 µM (HCT-116): 13.9% | inhibition at 10 µM (HS 578 T): < 10% | inhibition at 10 µM (OVCAR-5): < 10% | %G0-G1 (HL60 cells [3]): 43.15% | %G2-M (HL60 cells [3]): 29.44% | %Pre-G1 (HL60 cells [3]): 16.89% | %S (HL60 cells [3]): 27.41% | inhibition at 10 µM (DU-145): < 10% | inhibition at 10 µM (A498): 17.9% | inhibition at 10 µM (SK-MEL-28; SK-MEL-28, SK-MEL-28): < 10% | inhibition at 10 µM (SNB-75): < 10% | inhibition at 10 µM (RXF 393): < 10% | inhibition at 10 µM (A549/ATCC): 12.7% | inhibition at 10 µM (HL-60(TB)): 24.3% | Apoptosis, early (HL60 cells [4]): 5.66% | Apoptosis, late (HL60 cells [4]): 9.04% | Apoptosis, total (annexin V-FITC positive cells) (HL60 cells [4]): 16.89% | Necrosis (HL60 cells [4]): 2.19%

CS(=O)(=O)c1ccc(C(=O)N/N=C/c2ccccc2O)cc1 [Compound 16]
inhibition at 10 µM (PRMI-8226): 51.3% | inhibition at 10 µM (U251): 72.2% | inhibition at 10 µM (SN12C): 41.4% | inhibition at 10 µM (ACHN): 71.7% | inhibition at 10 µM (HCT-116): 70.9% | inhibition at 10 µM (HS 578 T): 18.5% | inhibition at 10 µM (OVCAR-5): 35.3% | %G0-G1 (HL60 cells [3]): 39.42% | %G2-M (HL60 cells [3]): 38.09% | %Pre-G1 (HL60 cells [3]): 22.41% | %S (HL60 cells [3]): 22.49% | inhibition at 10 µM (DU-145): 59.6% | inhibition at 10 µM (A498): 24.8% | inhibition at 10 µM (SK-MEL-28; SK-MEL-28): 44.1% | inhibition at 10 µM (SNB-75): 22.3% | inhibition at 10 µM (RXF 393): 47% | inhibition at 10 µM (A549/ATCC): 61.2% | inhibition at 10 µM (HL-60(TB)): 93.7% | Apoptosis, early (HL60 cells [4]): 7.34% | Apoptosis, late (HL60 cells [4]): 13.41% | Apoptosis, total (annexin V-FITC positive cells) (HL60 cells [4]): 22.41% | Necrosis (HL60 cells [4]): 1.66%
